From EP1199304A1, “Bicyclic compounds and pharmaceutical composition containing tricyclic compound for treating or preventing sleep disorders” (Takeda Chemical Industries, Ltd., priority 1997, dated 1997) come the findings set out here.

The target of this test is melatonin receptor. Briefly: Inhibition of 2-[125I]iodomelatonin binding (forebrain membrane homogenate). Further details: species or system chicken (white leghorn). Particulars: forebrains of 7-day-old chicken; 80 pM 2-[^125I]iodomelatonin; 90 minutes at 25°C; non-specific binding with 10^-5M melatonin; log-probit analysis; read-out: IC50 (nM), Action of inhibiting 2-[^125I]iodomelatonin binding. The procedure: Inhibition of 2-[^125I]iodomelatonin binding activity
The forebrains of 7-day-old chicken (white leghorn) were homogenized with ice-cold assay buffer (50 mM Tris-HCl, pH 7.7 at 25°C) and centrifuged at 44,000 x g for 10 minutes at 4°C. The pellet was washed once with the same buffer and storred at -30°C until use. For the assay, the frozen tissue pellet was thawed and homogenized with the assay buffer to make a protein concentration of 0.3 - 0.4 mg/ml. An 0.4 ml aliquot of this homogenate was incubated with a test compound and 80 pM 2-[^125I]iodomelatonin in a total volume of 0.5 ml for 90 minutes at 25°C. The reaction was terminated by adding 3 ml of ice-cold assay buffer immediately followed by vaccum filtration on Whatman GF/B which was further washed twice with 3 ml of ice-cold assay buffer. The radioactivity on the filter was determined by means of γ-counter. […] The 50% inhibiting concentration (IC50) was determined by the log-probit analysis.

In general, IC50 refers to the point on the concentration scale where inhibition reaches its midpoint. For `CCC(=O)NCC[C@@H]1CCc2ccc3c(c21)CCO3` [Example 11, (S)-N-[2-(1,6,7,8-tetrahydro-2H-indeno[5,4-b]-furan-8-yl)ethyl]propionamide], the IC50 is 0.048 nM. To `CCCC(=O)NCCc1c[nH]c2ccc3c(c12)CCCO3` [Example 5, N-[2-(3,7,8,9-tetrahydropyrano[3,2-e]indol-1-yl)ethyl]butyramide] belongs 0.082 nM; to `CC(=O)NCCC1CCc2ccc3c(c21)CCO3` (stereo not drawn) [Example 1, N-[2-(1,6,7,8-tetrahydro-2H-indeno[5,4-b]furan-8-yl)ethyl]acetamide], 0.28 nM. To `CCC(=O)NCCC1CNc2ccc3c(c21)CCCO3` (stereo not drawn) [Example 7, N-[2-(1,2,3,7,8,9-hexahydropyrano[3,2-e]indol-1-yl)ethyl]propionamide] belongs 0.46 nM; to `CCCC(=O)NCCC1CNc2ccc3c(c21)CCCO3` (stereo not drawn) [Example 8, N-[2-(1,2,3,7,8,9-hexahydropyrano[3,2-e]indol-1-yl)ethyl]butyramide], 0.22 nM; to `CCCC(=O)NCCC1=CCc2ccc3c(c21)CCO3` [Example 16, N-[2-(1,6-dihydro-2H-indeno[5,4-b]furan-8-yl)-ethyl]butyramide], 0.095 nM.

On to `CCC(=O)NCCC1=CCc2ccc3c(c21)CCO3` [Example 15, N-[2-(1,6-dihydro-2H-indeno[5,4-b]furan-8-yl)-ethyl]propionamide], for which the IC50 is 0.1 nM. The value for `CCC(=O)NCCc1c[nH]c2ccc3c(c12)CCCO3` [Example 4, N-[2-(3,7,8,9-tetrahydropyrano[3,2-e]indol-1-yl)ethyl]propionamide] was 0.13 nM; that for `CC(=O)NCCc1c[nH]c2ccc3c(c12)CCCO3` [Example 3, N-[2-(3,7,8,9-tetrahydropyrano[3,2-e]indol-1-yl)ethyl]acetamide] was 0.46 nM.

Consider `CCC(=O)NCCC1CCc2ccc3c(c21)CCO3` (stereo not drawn) [Example 2, N-[2-(1,6,7,8-tetrahydro-2H-indeno[5,4-b]furan-8-yl)ethyl]propionamide], for which the half-maximal inhibitory concentration (IC50) turned out to be 0.13 nM. Consider `CC(=O)NCCC1=CCc2ccc3c(c21)CCO3` [Example 14, N-[2-(1,6-dihydro-2H-indeno[5,4-b]furan-8-yl)ethyl]acetamide], for which the IC50 was 0.24 nM. With `CCCC(=O)NCCC1CCc2ccc3c(c21)CCO3` (stereo not drawn) [Example 13, N-[2-(1,6,7,8-tetrahydro-2H-indeno[5,4-b]furan-8-yl)ethyl]butyramide], the IC50 came out at 0.12 nM.
